Test results taken from paper PMC8427694, “The Herbal Compound Thymol Targets Multiple Salmonella Typhimurium Virulence Factors for Lon Protease Degradation” (Frontiers in Pharmacology, 2021).

What was measured:
Type in all cases: cell-based
GST-SipA27-270 [1] = molecular target: T1, GST-SipA27-270 (Salmonella enterica, UniProt E1WAC6); test: click chemistry labelling, in-gel fluorescence; details: covalent (suggested; survives SDS and 100 °C); labelled compound; compound added to E. coli culture during expression, 20 °C, 16 h; possibly a cellular derivative binds
T1 construct: gene sipA

GST-SipA497-669 [2] = molecular target: T2, GST-SipA497-669 (Salmonella enterica, UniProt E1WAC6); test: click chemistry labelling, in-gel fluorescence; details: covalent (suggested; survives SDS and 100 °C); labelled compound; compound added to E. coli culture during expression, 20 °C, 16 h; possibly a cellular derivative binds
T2 construct: gene sipA; residues 497-669 (actin nucleation domain), N-terminal GST (pGEX-6p-1) kept, expressed in E. coli BL21(DE3), glutathione-Sepharose purified

GST-SipA497-669 [3] = molecular target: T2, GST-SipA497-669; test: circular dichroism of purified protein from thymol-exposed cells; details: thymol present in E. coli culture during expression; protein 7.3 uM in PBS, 25 °C
GST-SipA27-270 [4] = molecular target: T1, GST-SipA27-270; test: as above; details: thymol present in E. coli culture during expression; protein 7.9 uM in PBS, 25 °C

T1 sequence (E1WAC6 27-270): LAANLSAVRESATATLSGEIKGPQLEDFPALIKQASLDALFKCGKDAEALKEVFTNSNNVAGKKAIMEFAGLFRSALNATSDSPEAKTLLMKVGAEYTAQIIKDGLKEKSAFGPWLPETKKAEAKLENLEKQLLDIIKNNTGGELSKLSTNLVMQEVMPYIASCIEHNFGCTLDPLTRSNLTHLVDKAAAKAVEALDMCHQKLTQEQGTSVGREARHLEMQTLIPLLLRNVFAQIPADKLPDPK
T2 sequence (E1WAC6 497-669 limits assumed): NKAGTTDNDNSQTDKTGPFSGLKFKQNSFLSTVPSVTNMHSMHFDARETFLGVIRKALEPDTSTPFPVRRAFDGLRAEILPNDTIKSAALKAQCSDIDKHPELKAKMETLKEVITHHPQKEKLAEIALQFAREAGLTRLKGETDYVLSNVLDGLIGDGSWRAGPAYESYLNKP

Q: Which results are given for C#CCOc1cc(C)ccc1C(C)C [alkyne-thymol]?
A: click chemistry labelling, in-gel fluorescence (GST-SipA27-270 [1]): Fluorescence signals were detected only in samples receiving alkyne-thymol; click chemistry labelling, in-gel fluorescence (GST-SipA497-669 [2]): Fluorescence signals were detected only in samples receiving alkyne-thymol

Q: How did the “circular dichroism of purified protein from thymol-exposed cells” value (GST-SipA497-669 [3]) turn out when Cc1ccc(C(C)C)c(O)c1 [thymol] was run?
A: The value was “proteins purified from cells treated with thymol exhibited significant changes in their CD spectra”.

Q: What about the “circular dichroism of purified protein from thymol-exposed cells” value (GST-SipA27-270 [4]) of the same compound?
A: The value was “proteins purified from cells treated with thymol exhibited significant changes in their CD spectra”.
